pEC50: −log10 of the molar value.
Tested on: SARS-associated coronavirus
Test: organism not typed
Type: cell-based
Conditions: for EC50 / pEC50: Vero; for pEC50: tested as in Example 1
[1] = Vero cell cultures, cytopathic effect scored 72-96 h after infection, mean of eight assays

| SMILES | effect on replication of the SARS-associated coronaviruses (Vero cells) | Therap. IndexI (Vero cells) | pEC50 (Vero cell cultures) | further results |
| --- | --- | --- | --- | --- |
| NC(=O)c1[nH]nc([C@@H]2O[C@H](CO)[C@@H](O)[C@H]2O)c1O [Pyrazofurin] | inhibited replication of SARS-CV at non-toxic doses |  |  | Selectivity Index (ratio CC50/EC50, Vero cells): 12 |
| COc1c(C)c2c(c(O)c1C/C=C(\C)CCC(=O)O)C(=O)OC2 [Mycophenolic acid] | did not affect replication |  |  | EC50 [1]: > 50 µg/mL |
| NC(=O)c1ncn([C@@H]2O[C@H](CO)[C@@H](O)[C@H]2O)n1 [Ribavirin] | did not affect replication |  |  | EC50 [1]: > 1000 µg/mL |
| CC1(C)C(OC2OC(C(=O)O)C(O)C(O)C2OC2OC(C(=O)O)C(O)C(O)C2O)CC[C@@]2(C)C1CC[C@]1(C)C2C(=O)C=C2C3C[C@@](C)(C(=O)O)CC[C@]3(C)CC[C@]21C.N (some centres unmarked) [Glycyrrhizin Monoammonium Salt] |  | 2 | 3.49 |  |
| CC1(C)C(OC2OC(C(=O)O)C(O)C(O)C2OC2OC(C(=O)O)C(O)C(O)C2O)CC[C@]2(C)[C@H]3C(=O)C=C4[C@@H]5C[C@@](C)(C(=O)O)CC[C@]5(C)CC[C@@]4(C)[C@]3(C)CC[C@@H]12 (stereo partly drawn) [Glycyrrhizin, (3-beta,20-beta)-20-Carboxy-11-oxo-30-norolean-12-en-3-yl 2-O-beta-D-glucopyranuronosyl-alpha-D-glucopyranosiduronic acid] |  |  |  | EC50 (compound added after virus adsorption, Vero cells): 600 µg/mL; EC50 (compound added during and after virus adsorption, Vero cells): 300 µg/mL; EC50 (compound added during virus adsorption, Vero cells): 2400 µg/mL; Selectivity Index (after virus adsorption, CC50/EC50): >33; Selectivity Index (during and after virus adsorption, CC50/EC50): >67 |
| COC(=O)[C@@]1(C)CC[C@]2(C)CC[C@]3(C)C(=CC(=O)C4[C@@]5(C)CCC(OC6OC(C(=O)NN)C(O)C(O)C6OC6OC(C(=O)NN)C(O)C(O)C6O)C(C)(C)C5CC[C@]43C)C2C1 (some centres unmarked) [Compound 7] |  | 4 | 4.80 |  |
| O=c1cnn([C@@H]2O[C@H](CO)[C@@H](O)[C@H]2O)c(=O)[nH]1 [Compound 6-azauridine, 6-azauridine] | inhibited replication of SARS-CV at non-toxic doses |  |  | Selectivity Index (ratio CC50/EC50, Vero cells): 6; Selectivity Index (ratio CC50/EC50, Vero cells, listed as 6-azuridine): 5 |
| COC(=O)[C@@]1(C)CC[C@]2(C)CC[C@]3(C)C(=CC(=O)C4[C@@]5(C)CCC(OC6OC(CO)C(O)C(O)C6OC6OC(CO)C(O)C(O)C6O)C(C)(C)C5CC[C@]43C)C2C1 (some centres unmarked) [Compound 8] |  | 6 | 5.10 |  |

Reference: US20070099855A1 (priority 2003, published 2007)
